Biological target: Protein arginine N-methyltransferase 5 (Homo sapiens, UniProt O14744)
Assay: Biochemical Assay
Method: Compounds were solubilized in DMSO and serially diluted, using 3-fold dilutions, into 100% DMSO at a concentration 50-fold greater than the desired assay concentration. Following dilution, 1 ul was added to an empty 96-well microtiter plate. PRMT5/MEP50 protein complex was combined with H4(1-21) peptide ([…]) in PRMT5 assay buffer (50 mM Tris pH 8.5, 50 mM NaCl, 5 mM MgCl2, 1 mM EDTA, 1 mM TCEP) and 44 ul was added to the microtiter plate containing compound. S-Adenosyl-L-methionine (SAM) was prepared by combining 3H labelled SAM with unlabelled SAM in PRMT5 assay buffer such that the final SAM concentration was 10 uM and the specific activity was 0.2 uCi/ul. The reaction was initiated by adding 5 ul of SAM stock to the microtiter plate. The final reaction conditions were 10 nM PRMT5/MEP50 complex, 200 nM peptide and 1 uM SAM. Following a 25 minute incubation at room temperature, the reaction was stopped with the addition of 100 uL of 20% TCA. The 3H-peptide product was captured using a 96-well filter plate (MSIPN4B, Millipore) and washed 5 times with PBS buffer. Scintillation fluid (100 ul) was added to the dried filter plate and counted in a liquid scintillation counter. IC50 values were determined by fitting the data to the standard 4-parameter dose response equation using Pfizer proprietary software.

Protein arginine N-methyltransferase 5, sequence (O14744 whole entry): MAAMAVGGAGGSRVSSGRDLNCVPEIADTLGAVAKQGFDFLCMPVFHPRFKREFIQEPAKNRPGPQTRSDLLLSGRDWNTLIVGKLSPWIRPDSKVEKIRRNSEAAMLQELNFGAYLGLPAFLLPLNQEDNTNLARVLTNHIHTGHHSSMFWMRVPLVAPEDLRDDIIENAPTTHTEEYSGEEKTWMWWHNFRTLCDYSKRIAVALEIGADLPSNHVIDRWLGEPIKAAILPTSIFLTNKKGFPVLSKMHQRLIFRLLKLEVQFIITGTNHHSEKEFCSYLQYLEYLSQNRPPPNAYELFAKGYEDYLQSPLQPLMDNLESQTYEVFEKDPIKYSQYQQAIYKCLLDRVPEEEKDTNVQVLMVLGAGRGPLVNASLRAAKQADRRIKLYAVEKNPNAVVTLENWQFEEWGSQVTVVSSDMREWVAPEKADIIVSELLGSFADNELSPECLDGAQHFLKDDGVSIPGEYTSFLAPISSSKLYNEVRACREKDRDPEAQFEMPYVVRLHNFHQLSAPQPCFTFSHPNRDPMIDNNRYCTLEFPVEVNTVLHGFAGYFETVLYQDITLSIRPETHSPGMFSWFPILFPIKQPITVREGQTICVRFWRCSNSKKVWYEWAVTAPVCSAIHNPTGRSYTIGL

Row | IC50 | SMILES
1 | 1 nM | Nc1ncnc2c1c(Br)cn2[C@@H]1C[C@H](Oc2cc(Cl)cc3c2CNCC3)[C@@H](O)[C@H]1O [US10709709, Example 131]
2 | 1 nM | Cc1ncnc2c1ccn2[C@@H]1C[C@H](Oc2cc(C(F)F)cc3c2CNCCO3)[C@@H](O)[C@H]1O [US10709709, Example 205]
3 | 2 nM | Cc1cc2c(c(O[C@H]3C[C@@H](n4ccc5c(C)ncnc54)[C@H](O)[C@@H]3O)c1)CNCCO2 [US10709709, Example 206]
